4 compounds from patent publication EP4768482A1, “THIOBENZIMIDAZOLE DERIVATIVE OR PHARMACEUTICALLY ACCEPTABLE SALT THEREOF, AND USE THEREOF” (Korea University Research and Business Foundation, priority 2023, dated 2025) can be followed below.

Structures are written as SMILES.

For the test, the system named is MDA-MB-231. The test can be described thus: MTS cell viability assay, MDA-MB-231 breast cancer cell line. The class given is cell-based. To be noted: Homo sapiens, MDA-MB-231 cell line, 0-10 µM, 72 hours. How it is done:
MDA-MB-231 (Cell seeding numbers: 0.8(M231) x 10^4 cells/wells (confluency ≧ 25%), which is a human triple-negative breast cancer (TNBC) cell line, and JIMT-1 (Cell seeding numbers: 0.8(JIMT) x 10^4 cells/wells (confluency ≧ 25%)), which is a HER2 positive breast cancer (HER2+ BC) cell line, were used in the experiment.
The above cell lines were cultured in an environment of 5% CO2 and 37°C in a Dulbecco's modified Eagle's medium (DMEM) including a 10% fetal bovine serum (FBS), a streptomycin-penicillin (100 U/mL), and a Fungizone (0.625 µg/mL), respectively.
The human breast cancer cell lines MDA-MB-231 and JIMT-1 were treated with thiobenzimidazole derivatives of Formulas 1-1 to 1-10 at concentrations of 0, 0.5, 1, and 5 µM, respectively, for 72 hours, and then cell viability was measured using the MTS assay technique. In the MTS assay, cells were attached to a 96-well plate for 24 hours, treated with the thiobenzimidazole derivative for 72 hours, developed with MTS (3-(4,5-dimethylthiazol-2-yl)-5-(3-carboxymethoxyphenyl)-2-(4-sulfophenyl)-2H-tetrazolium) for 4 hours, and then absorbance was measured at 490 nm using a Spectramax Plus384 microplate analyzer. The results are illustrated in FIG. 1, and as illustrated in the drawing, it was confirmed that the thiobenzimidazole derivatives of Formula 1-1 to 1-10 inhibited cell viability in a concentration-dependent manner in the human breast cancer cell lines MDA-MB-231 and JIMT-1.
The MDA-MB-231 and JIMT-1 cell lines were treated with thiobenzimidazole derivatives (Formula 1-1 to 1-4) of the disclosure at concentrations of 0, 0.01, 0.05, 0.1, 0.25, 0.5, 1, 5, and 10 µM, respectively, and then cell viability and IC50 values therefrom were confirmed. The preparation method of the cell lines and the experimental method were the same as those performed in Example 1.
For orientation: IC50 means the concentration at which inhibition is half-maximal. A low value points to higher potency. On to `COC(=O)Nc1nc2cc(Sc3ccc(N4CCC(O)CC4)nc3)ccc2[nH]1` [Formula 1-4, Methyl (5-((6-(4-hydroxypiperidin-1-yl)pyridin-3-yl)thio)-1H-benzo[d]imidazol-2-yl)carbamate], for which the 50% inhibitory concentration (IC50) worked out at 0.135 µM.

Compound `COC(=O)Nc1nc2cc(Sc3ccc(N4CCC(N5CCOCC5)CC4)cc3)ccc2[nH]1` [Formula 1-1, Methyl (5-((4-(4-morpholinopiperidin-1-yl)phenyl)thio)-1H-benzo[d]imidazol-2-yl)carbamate] showed an IC50 of 0.592 µM.

`COC(=O)Nc1nc2cc(Sc3ccc(N4CCN(C)CC4)c(F)c3)ccc2[nH]1` [Formula 1-3, Methyl (5-((3-fluoro-4-(4-methylpiperazin-1-yl)phenyl)thio)-1H-benzo[d]imidazol-2-yl)carbamate] displayed an IC50 of 0.583 µM. With `COC(=O)Nc1nc2cc(Sc3ccc(N4CCOCC4)c(F)c3)ccc2[nH]1` [Formula 1-2, Methyl (5-((3-fluoro-4-morpholinophenyl)thio)-1H-benzo[d]imidazol-2-yl)carbamate], the 50% inhibitory concentration (IC50) was 0.174 µM.
